Tests used:
Test in all cases: relative viability (nuclei count vs DMSO), 5 days (fraction); higher = more cells survive
Nelarabine = compound: COc1nc(N)nc2c1ncn2[C@@H]1O[C@H](CO)[C@@H](O)[C@@H]1O [Nelarabine]
How it was run: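 On vehicle-anchored 1536-well plates, lung cancer cell lines held overnight at 37 °C were pinned with five library-drug doses (not always all listed) spaced by √10. With no medium change over 5 days, they were then fixed, permeabilised and Hoechst-stained in one step and imaged at 4×. MetaXpress counted nuclei, and viability is the median across plates of treated-well over vehicle-well nuclei. Acceptance needed control CV below 25% and at least one doubling.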

Adavosertib + Lapatinib = compound: C=CCn1c(=O)c2cnc(Nc3ccc(N4CCN(C)CC4)cc3)nc2n1-c1cccc(C(C)(C)O)n1 [Adavosertib] + CS(=O)(=O)CCNCc1ccc(-c2ccc3ncnc(Nc4ccc(OCc5cccc(F)c5)c(Cl)c4)c3c2)o1 [Lapatinib] (partner 2 µM)
How it was run: (§1)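 Relative viability divides the nuclei count in treated wells by that in vehicle wells. Lung cancer cell lines were seeded in 1536-well plates, dosed by pin tool the next day, and fixed and stained after 5 days in one step with final 0.05% Triton X-100, 1% formaldehyde and 1 ug/ml Hoechst. Dosing was a single drug or a fixed anchor-drug dose plus five library-drug doses (not always all listed) in √10 steps, and values are medians of duplicate plates imaged at 4×.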

Nelarabine + Tozasertib = compound: COc1nc(N)nc2c1ncn2[C@@H]1O[C@H](CO)[C@@H](O)[C@@H]1O [Nelarabine] + Cc1cc(Nc2cc(N3CCN(C)CC3)nc(Sc3ccc(NC(=O)C4CC4)cc3)n2)n[nH]1 [Tozasertib] (partner 0.1 µM)
How it was run: as §1

Adavosertib + Foretinib = compound: C=CCn1c(=O)c2cnc(Nc3ccc(N4CCN(C)CC4)cc3)nc2n1-c1cccc(C(C)(C)O)n1 [Adavosertib] + COc1cc2c(Oc3ccc(NC(=O)C4(C(=O)Nc5ccc(F)cc5)CC4)cc3F)ccnc2cc1OCCCN1CCOCC1 [Foretinib] (partner 0.25 µM)
How it was run: as §1

Cell Line: EMC-BAC-2
- relative viability (Nelarabine; 0.01 µM): 1.01
- relative viability (Nelarabine; 0.03162 µM): 1.22
- relative viability (Nelarabine; 0.1 µM): 1.08
- relative viability (Nelarabine; 0.3162 µM): 0.968
- relative viability (Nelarabine; 1 µM): 1.07
- relative viability (Adavosertib + Lapatinib; first compound 0.01 µM): 0.882
- relative viability (Adavosertib + Lapatinib; first compound 0.03162 µM): 0.869
- relative viability (Adavosertib + Lapatinib; first compound 0.1 µM): 0.927
- relative viability (Adavosertib + Lapatinib; first compound 0.3162 µM): 0.978
- relative viability (Nelarabine + Tozasertib; first compound 0.01 µM): 0.307
- relative viability (Nelarabine + Tozasertib; first compound 0.03162 µM): 0.236
- relative viability (Nelarabine + Tozasertib; first compound 0.1 µM): 0.277
- relative viability (Nelarabine + Tozasertib; first compound 0.3162 µM): 0.239
- relative viability (Nelarabine + Tozasertib; first compound 1 µM): 0.297
- relative viability (Adavosertib + Foretinib; first compound 0.01 µM): 1.08
- relative viability (Adavosertib + Foretinib; first compound 0.03162 µM): 1.01
- relative viability (Adavosertib + Foretinib; first compound 0.1 µM): 0.995
- relative viability (Adavosertib + Foretinib; first compound 0.3162 µM): 0.949

From the supplement of paper PMC10307832
